The values below come from patent publication US20060258581A1, “Methods and composition for derepressions of IAP-inhibited caspase” (priority 2001, published 2006).

Where no end group is shown, it is not given here. [ ]: non-standard residue; d: D form. d2Nal = N[C@H](Cc1ccc2ccccc2c1)C(=O)O

Broadly, the EC50 is the concentration at which the effect is half-maximal. A word on the Kd: it is a measure of binding affinity in units of concentration. As a reminder, the IC50 is the concentration that inhibits the measured activity by half. High values mean weaker potency in that assay, low ones greater potency in that assay.

Series [1] concerns NCI panel of 60 tumor cell lines. As to the kind of experiment: NCI panel of 60 tumor cell lines, 48 hours, protein-based colorimetric assay. Also on record: species or system human. The method, then: Selected polyphenylurea compounds were tested on the National Cancer Institute (NCI) panel of 60 tumor cell lines (see FIG. 28a and FIG. 29).
The next series has as its target T1, XIAP-inhibited caspase-3 (Homo sapiens, UniProt P98170).
T1 construct: in a caspase derepression assay using full length XIAP; made in house; host or cells: bacteria
As to the kind of experiment: IAP derepression assay: Ac-DEVD-AFC hydrolysis by caspase-3 in the presence of GST-XIAP. It is filed as biochemical. How it is done: The ratio of Vmax for hydrolysis of Ac-DEVD-AFC in the presence and absence of the candidate mixture was calculated and used to identify those that contain an agent that derepresses an IAP-inhibited caspase.
Each mixture was aliquoted in a 25 microliter volume and in duplicate to a well of a 96 well microtiter plate. […] Fluorescence of liberated AFC was immediately detected from each well for 30 minutes at 30 second intervals. The Vmax for hydrolysis of AC-DEVD-AFC from each well was measured using the softmax software package.

Series [2] deals with caspase-3 and caspase-7 activity in Jurkat cells. As to the kind of experiment: Caspase-3 and caspase-7 activity in whole Jurkat cells, cell permeable substrate. In kind it is cell-based. Particulars: 8 μM, 20 hours.
The next series addresses full length XIAP (Homo sapiens, UniProt P98170). As to the kind of experiment: Potency of IAP antagonists in vitro (Table VIII; caspase derepression / SMAC competition with full length XIAP).
Series [3] relates to acute myelogenous leukemia (AML) blasts. As to the kind of experiment: Freshly isolated AML leukemic blasts from patients, annexin-V. In kind it is cell-based, human. Conditions: 20-24 hours. The text has this: (§1) Since many tumor and leukemia cell lines proliferate faster than normal cells, it was investigated whether the polyphenylurea compounds could induce apoptosis of non-replicating malignant cells. […] Thus, cell replication is not required for sensitivity to the disclosed poly-phenylurea compounds.

The test system of another series is Jurkat leukemia cells. As to the kind of experiment: Jurkat leukemia cell death, Annexin V/propidium iodide flow cytometry. Particulars: Homo sapiens, Jurkat, 20 h, 20 hours, read-out: % nonviable cells. It is filed as cell-based. How it is done: (§2) The following assay was used to test the ability of individual compounds from the TPI 1396 and TPI 1391 libraries to induce apoptosis of cultured tumor cell lines. Each of the compounds listed in Table IX was individually added to Jurkat leukemia cells (6.25×10^5 cells/mL) in RPMI containing 2.5% FBS at various concentrations for 20 hours. After incubation, cells were washed and stained with FITC-conjugated Annexin V antibody and propidium iodide (Biovision; Mountain View, Calif.). Cells were incubated for 20 minutes at room temperature in the dark and fluorescence was measured by flow cytometry (FACScan, Immunocytometry system; Becton-Dickinson; San Jose, Calif.). Cells staining positive for Annexin V were deemed non-viable.
(§3) The TPI I396-34 and TPI 1391-28 compounds were further tested as set forth below.

Series [4] concerns chronic lymphocytic leukemia (CLL) B-cells. As to the kind of experiment: Freshly isolated CLL B-cells from patients, annexin-V/propidium iodide. Conditions: 20-24 hours. It is filed as cell-based, human.
Description: as §1

The next series addresses T2, caspase-3 (Homo sapiens, UniProt P42574).
T2 construct: made in house; host or cells: bacteria
As to the kind of experiment: Caspase assay without XIAP (candidate mixture and caspase 3 only). Particulars: TPI 1239 library, absence of XIAP. It is filed as biochemical. How it is done:
Caspase activity was assayed by release of 7-amino-4-trifluoromethyl-coumarin (AFC) from Ac-DEVD-AFC synthetic peptides using a Molecular Devices Spectromax 340 (see Zhou et al., J. Biol. Chem. 272:7797-7800 (1997)). […] The ratio of Vmax for hydrolysis of Ac-DEVD-AFC in the presence and absence of the candidate mixture was calculated and used to identify those that contain an agent that derepresses an IAP-inhibited caspase.
Screening of each mixture from the DCR390, TPI 1239 or TPI 1328 library, respectively, using the above described assay was carried out as follows. Each mixture was aliquoted in a 25 microliter volume and in duplicate to a well of a 96 well microtiter plate. […] Fluorescence of liberated AFC was immediately detected from each well for 30 minutes at 30 second intervals. The Vmax for hydrolysis of AC-DEVD-AFC from each well was measured using the softmax software package.
Results of the screen for the DCR390 library are shown in Table I. Sets of mixtures having the same position fixed with different respective amino acids are arranged in 6 sections identified with the position number. […] The mixtures in each section are arranged in descending order according to apparent velocity in the second column.

Series [5] can be described thus: Jurkat leukemia cell death, Annexin V/propidium iodide flow cytometry. It is filed as cell-based. Conditions: human, 20 hours, read-out: % nonviable cells. How it is done: as §2, §3
Background: Flow cytometry measures light scatter and fluorescence of single cells or particles in a stream.

Series [6] concerns the target GST-BIR2 (glutathione-S-transferase-BIR2 fusion protein of XIAP) (human) (UniProt P98170). As to the kind of experiment: fluorescence polarization; 20 nM rhodamine-SMAC, GST-BIR2 0 to 495 nM. (In fluorescence polarisation assays a small probe gives low polarisation when free and higher when bound to something large.)
Series [7] has as its target BIR3RING (XIAP fragment) (human) (UniProt P98170). As to the kind of experiment: fluorescence polarization; 20 nM rhodamine-SMAC, BIR3RING titrated.
Series [8] deals with mouse embryo fibroblasts (MEFs) from XIAP -/- mice. As to the kind of experiment: Mouse embryo fibroblasts from XIAP -/- and wild type mice, MTT assay. It is filed as cell-based. Conditions: non-transformed versus SV40 large T transformed MEFs. How it is done:
Cells were either tested directly at low passage (FIGS. 38A and C) or after transformation by infection with a retrovirus encoding SV40 large T antigen (FIGS. 38B and D). […] Cell viability was measured by MTT assay, expressing data as a percentage relative to control, untreated cells. Data shown in FIG. 38A-D represent mean±standard deviation of triplicate determinations.
(Formazan colour is commonly taken as a measure of viable cells.)

The next series deals with Smac-7 mer/XIAP-BIR2. As to the kind of experiment: Competition assay Smac-7 mer/XIAP-BIR2 IC-50 uM | AVG.
Series [9] has as its system ALVA31 prostate cancer cells. As to the kind of experiment: ALVA31 prostate cancer cell viability (XTT dye-reduction, trypan blue). Particulars: 24 hrs; peptides 40 μM, VP-16 100 μM. It is filed as cell-based. How it is done:
The in vivo effects of TPI 792-33 or TPI 792-35, either individually or in combination with the cytotoxic anticancer drug VP-16 (etoposide), on derepression of XIAP-inhibited caspase and viability of ALVA31 cells was determined as follows. ALVA31 prostate cancer cells were seeded onto 96 well plates (10^4 cells/well) in 100 μL RPMI containing 2.5% fetal bovine serum (FBS). […] After another 24 hrs-incubation, cell viability was measured by the XTT dye-reduction assay (Roche, Molecular Biochemicals; Indianapolis, Ind.) and trypan blue dye exclusion assay.

A further series has as its target GST-XIAP (human) (UniProt P98170). As to the kind of experiment: cell-based or functional assay.

T1 sequence (P98170 whole entry): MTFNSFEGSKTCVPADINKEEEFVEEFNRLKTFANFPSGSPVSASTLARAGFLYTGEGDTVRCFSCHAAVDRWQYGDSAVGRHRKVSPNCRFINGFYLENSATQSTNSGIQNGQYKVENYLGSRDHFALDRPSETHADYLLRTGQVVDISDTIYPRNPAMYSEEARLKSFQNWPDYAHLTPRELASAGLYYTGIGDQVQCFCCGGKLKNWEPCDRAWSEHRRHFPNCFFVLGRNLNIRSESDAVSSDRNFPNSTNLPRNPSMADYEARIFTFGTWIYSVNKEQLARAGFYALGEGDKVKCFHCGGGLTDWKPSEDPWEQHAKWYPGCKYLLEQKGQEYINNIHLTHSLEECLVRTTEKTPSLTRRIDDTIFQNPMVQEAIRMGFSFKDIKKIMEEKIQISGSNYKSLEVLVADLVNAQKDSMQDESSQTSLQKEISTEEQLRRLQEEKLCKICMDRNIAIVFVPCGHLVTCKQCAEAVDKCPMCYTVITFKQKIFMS
GST-XIAP (human), sequence (P98170 whole entry): as above
full length XIAP, sequence (P98170 whole entry): as above
GST-BIR2 (glutathione-S-transferase-BIR2 fusion protein of XIAP) (human), sequence (P98170 124-240): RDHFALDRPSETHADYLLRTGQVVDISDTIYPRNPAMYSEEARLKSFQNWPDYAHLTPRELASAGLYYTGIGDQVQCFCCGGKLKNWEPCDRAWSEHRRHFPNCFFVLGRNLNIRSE
T2 sequence (P42574 29-175 limits assumed): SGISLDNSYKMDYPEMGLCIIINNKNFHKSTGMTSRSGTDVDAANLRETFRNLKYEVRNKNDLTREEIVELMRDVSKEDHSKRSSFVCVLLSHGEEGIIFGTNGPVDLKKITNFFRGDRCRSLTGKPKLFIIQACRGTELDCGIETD
T2 sequence (P42574 176-277 limits assumed): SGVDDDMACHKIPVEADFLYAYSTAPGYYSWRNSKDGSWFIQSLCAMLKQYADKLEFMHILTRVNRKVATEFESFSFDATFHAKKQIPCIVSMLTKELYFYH
BIR3RING (XIAP fragment) (human), sequence (P98170 243-497 limits assumed): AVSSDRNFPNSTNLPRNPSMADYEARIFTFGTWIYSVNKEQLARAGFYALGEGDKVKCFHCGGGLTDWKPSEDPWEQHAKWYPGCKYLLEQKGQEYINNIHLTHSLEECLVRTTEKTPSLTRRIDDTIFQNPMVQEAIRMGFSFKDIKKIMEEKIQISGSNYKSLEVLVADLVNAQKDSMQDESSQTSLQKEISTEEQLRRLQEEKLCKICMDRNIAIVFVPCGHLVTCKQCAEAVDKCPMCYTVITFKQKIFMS

Consider `CCCC[C@@H](CN(C(=O)Nc1ccccc1)[C@@H](CNC(=O)Nc1ccccc1)CC1CCCCC1)N(CCc1ccc(O)cc1)C(=O)Nc1ccccc1` [TPI 1396-28], for which the “average (mean) LD50 for the 60 cell lines” value in series [1] was > 70 µM. Besides, the “Activity* (relative caspase-3 activity: Vmax in the presence of compound / Vmax of controls having caspase-3 and XIAP)” value on XIAP-inhibited caspase-3 (XIAP derepression assay) worked out at 1.3. Further, the “activity in the caspase derepression assay using full length XIAP” value on XIAP-inhibited caspase-3 (in words) was “inactive analog”. Besides, the “caspase activation in whole cells” value in series [2] was “did not induce caspase activation”. The EC50 at full length XIAP was > 134000 nM. Besides, the apoptosis induction entry in series [3] and in series [4] was “did not induce apoptosis” each time. In addition, the cytotoxicity at 1 µM in the series on Jurkat leukemia cells (1 μM) was determined as 13%. Further, in the series with Jurkat leukemia cells (10 μM), the cytotoxicity at 10 µM is 13%. Moreover, the cytotoxicity at 25 µM in the series with Jurkat leukemia cells (25 μM) was determined as 14%. Also, the cytotoxicity at 50 µM with Jurkat leukemia cells (50 μM) came to 13%.

For “H-AVPIAQK-NH2 [SMAC, H-Ala-Val-Pro-Ile-Ala-Gln-Lys-NH2, reference compound]”, the “Vmax(mix + casp3 + XIAP) / Vmax(casp3 + XIAP)” value on XIAP-inhibited caspase-3 (TPI 1239 library) worked out at 3.8 ± 1.7. At caspase-3, the “Vmax(mix + casp3) / Vmax(casp3)” value was 0.8 ± 0.0. In addition, the cytotoxicity at 20 hours, 5 µM in series [5] (5 μM) was found to be 12%. The cytotoxicity at 20 hours, 25 µM in series [5] (25 μM) is 16%. Also, the cytotoxicity at 20 hours, 50 µM in series [5] (50 μM) is ~16%. Further, in [5] (100 μM), the cytotoxicity at 20 hours, 100 µM came out at 15%.

On to “rhodamine labeled SMAC (rhodamine-SMAC) (peptide)”, for which the figures for the Kd in series [6] and in series [7] were 100 nM and 80 nM, respectively.

Take `COc1cccc2c1C(=O)c1c(O)c3c(c(O)c1C2=O)C[C@@](O)(C(C)=O)C[C@@H]3O[C@H]1C[C@H](N)[C@H](O)[C@H](C)O1` [daunorubicin]: in [8], the “selectivity for transformed cells” value is on record as “do not display selectivity for transformed cells”.

Turning to “(D-Trp)-(D-Trp)-(L-Trp)-(D-Nal) ([dW][dW]W[d2Nal]) [TPI 1332-24]”, in the series on Smac-7 mer/XIAP-BIR2, the IC50 came to 5000 ± 4800 nM.

Consider `COc1cc([C@@H]2c3cc4c(cc3[C@@H](O[C@@H]3O[C@@H]5CO[C@@H](C)O[C@H]5[C@H](O)[C@H]3O)[C@H]3COC(=O)[C@H]23)OCO4)cc(OC)c1O` [VP-16, etoposide, reference compound], for which the “average (mean) LD50 for the 60 cell lines” value in series [1] worked out at 200 ± 2.5 µM. Also, the “cell viability, compound alone” value in [9] is listed as “essentially no effect”.

In the case of H-AVPIAQK-NH2 [SMAC peptide (H-Ala-Val-Pro-Ile-Ala-Gln-Lys-NH2)], in the series with GST-XIAP (human), the Vmax(mix + casp3 + XIAP)/Vmax(casp3 + XIAP) is 3.8.
